Test results from US9988348B1, “Synthesis and antimicrobial use of a trithiocarbonate derivative” (KING SAUD UNIVERSITY, priority 2017, dated 2018).
Marks after values point to notes of the source that are not given here.

Test system: C. albicans
Assay: in vivo antifungal activity, candidemia in mice infected with C. albicans
Parameters: species or system Albino male mice
Conditions: C. albicans-infected mice; for daily body weight / % change in daily body weight / Food consumption / Mortality / Water consumption: oral 12 mg/kg then 6 mg/ml
Procedure: To confirm that the water soluble form of the compound 4 has a biological activity as a novel antimicrobial agent, effectiveness of the compound 4 as a drug to treat candidemia in mice was investigated. The experiment was performed in Experimental Animal Care Center (EACC), College of Pharmacy, King Saud University, Riyadh. Fifty Albino male mice, weighing nearly 30±2 gram were used. The mice were arranged in five groups, each including ten mice caged together, given water, and feed ad libitum. Negative control and control group were infected intravenously with 0.2 ml of C. albicans suspension (10^6 CFU/mouse) and 0.2 ml of sterile normal saline (0.89% Nacl) respectively. The group treated with standard drug (fluconazole) was infected intravenously with 0.2 ml of C. albicans suspension (10^6 CFU/mouse) and treated (orally) by 12 mg/kg of fluconazole (loading dose) on the first day followed by 6 mg/ml for 2 weeks. The group treated with the investigated compound 4 was infected intravenously with C. albicans at 10^6 CFU/mouse (0.2 ml) and treated (orally) by 12 mg/kg of the compound 4 (loading dose) on the first day followed by 6 mg/ml for 2 weeks. To study the biological effects of compound 4, a fifth group was designed. In this group the mice were treated intravenously (I. V) with 12 mg/kg of the compound 4 on the first day followed by 6 mg/ml for 2 weeks. All doses of the standard drug and compound 4 were given twice daily.
The effectiveness of the previous treatments on some biological concepts were evaluated. The biological parameters included daily body weight (gm), mortality (%), food consumption (g/day/mouse), water consumption (ml/day/mouse), serum glutamic oxaloacetic transaminase [SGOT(AST) (U/L)], serum glutamic-pyruvic transaminase [SGPT(ALT)(U/L)], alkaline phosphatase (U/L), gamma-glutamyl transferase (GGT) (U/L), bilirubin (mg/dl)], cholesterol (mg/dl), triglycerides (mg/dl), high-density lipoprotein (HDL) (mg/dl), very-low-density lipoprotein (VLDL) (mg/dl), low-density lipoprotein (LDL) (mg/dl), lactate dehydrogenase (LDH) (U/L), glucose (mg/dl), total protein (mg/dl), malondialdehyde (MDA) (nmol/g), nonprotein sulfyhydryl (NP-SH) (nmol/g). Addition hematologic constituents including white blood cells (WBC) (cell/mm^3), red blood cells (RBC) (10^6/mm^3), hemoglobin (HGB) (g/dL), HCT, Platelets (PLT) (10^3/mm^3), mean corpuscular volume (MCV) (fL), mean corpuscular hemoglobin (MCH) (pg), mean corpuscular hemoglobin concentration (MCHC) (g/dL), neutrophils (%), lymphocytes (%), eosinophils (%) and monocytes (%)] were evaluated (Classics Lowry et al. 1951; Utley et al. 1967; Sedlak et al. 1968). SGOT (AST), SGPT (ALT), ALP, GGT, bilirubin LDH and total protein were estimated using Reflotron Plus Analyzer and Roche kits (Roche Diagnostics GmbH, Mannheim Germany) and United diagnostic kits assay. Hematological tests were performed by Mindray BC-2800VET auto Hematology Analyzer.

[1] = blood, oral 12 mg/kg then 6 mg/ml for 2 weeks
[2] = liver tissue, oral 12 mg/kg then 6 mg/ml for 2 weeks
[3] = serum, oral 12 mg/kg then 6 mg/ml for 2 weeks

OC(Cn1cncn1)(Cn1cncn1)c1ccc(F)cc1F [fluconazole, reference compound]
daily body weight (day 0): 19.70 ± 0.47 gm | % change in daily body weight (day 1): 0.50% | Food consumption (day 1): 4.3 g/day/mice | Mortality (day 1): 0% | Water consumption (day 1): 4.8 g/day/mice | daily body weight (day 1): 19.80 ± 0.35 gm | % change in daily body weight (day 2): 10.65% | Food consumption (day 2): 4.3 g/day/mice | Mortality (day 2): 0% | Water consumption (day 2): 4.8 g/day/mice | daily body weight (day 2): 21.80 ± 0.24 gm | % change in daily body weight (day 3): 13.19% | Food consumption (day 3): 4.5 g/day/mice | Mortality (day 3): 0% | Water consumption (day 3): 4.9 g/day/mice | daily body weight (day 3): 22.30 ± 0.21 gm | % change in daily body weight (day 4): 13.70% | Food consumption (day 4): 4.6 g/day/mice | Mortality (day 4): 0% | Water consumption (day 4): 5.0 g/day/mice | daily body weight (day 4): 22.40 ± 0.22 gm | % change in daily body weight (day 5): 21.31% | Food consumption (day 5): 4.6 g/day/mice | Mortality (day 5): 0% | Water consumption (day 5): 5.2 g/day/mice | daily body weight (day 5): 23.90 ± 0.31 gm | % change in daily body weight (day 6): 21.82% | Food consumption (day 6): 4.7 g/day/mice | Mortality (day 6): 0% | Water consumption (day 6): 5.2 g/day/mice | daily body weight (day 6): 24.00 ± 0.29 gm | % change in daily body weight (day 7): 22.95% | Food consumption (day 7): 5.0 g/day/mice | Mortality (day 7): 10% | Water consumption (day 7): 5.1 g/day/mice | daily body weight (day 7): 24.22 ± 0.22 gm | % change in daily body weight (day 8): 24.08% | Food consumption (day 8): 5.1 g/day/mice | Mortality (day 8): 10% | Water consumption (day 8): 5.2 g/day/mice | daily body weight (day 8): 24.44 ± 0.24 gm | % change in daily body weight (day 9): 24.36% | Food consumption (day 9): 4.7 g/day/mice | Mortality (day 9): 20% | Water consumption (day 9): 5.2 g/day/mice | daily body weight (day 9): 24.50 ± 0.18 gm | % change in daily body weight (day 10): 26.29% | Food consumption (day 10): 5.00 g/day/mice | Mortality (day 10): 20% | Water consumption (day 10): 5.3 g/day/mice | daily body weight (day 10): 24.87 ± 0.29 gm | % change in daily body weight (day 11): 28.17% | Food consumption (day 11): 5.1 g/day/mice | Mortality (day 11): 20% | Water consumption (day 11): 5.3 g/day/mice | daily body weight (day 11): 25.25 ± 0.25 gm | % change in daily body weight (day 12): −28.80% | Food consumption (day 12): 5.62 g/day/mice | Mortality (day 12): 20% | Water consumption (day 12): 5.5 g/day/mice | daily body weight (day 12): 25.37 ± 0.26 gm | % change in daily body weight (day 13): 31.97% | Food consumption (day 13): 5.2 g/day/mice | Mortality (day 13): 30% | Water consumption (day 13): 5.4 g/day/mice | daily body weight (day 13): 26.00 ± 0.30 gm | % change in daily body weight (day 14): 33.43% | Food consumption (day 14): 5.2 g/day/mice | Mortality (day 14): 30% | Water consumption (day 14): 5.4 g/day/mice | daily body weight (day 14): 26.28 ± 0.28 gm | % change in daily body weight (day 15): 35.60% | Food consumption (day 15): 5.5 g/day/mice | Mortality (day 15): 30% | Water consumption (day 15): 5.7 g/day/mice | daily body weight (day 15): 26.71 ± 0.28 gm | Eosinophils Mean ± SE [1]: 1.61 ± 0.10% | HCT Mean ± SE [1]: 35.05 ± 1.5 | HGB Mean ± SE [1]: 11.1 ± 0.18 g/dL | Lymphocytes Mean ± SE [1]: 6.2 ± 0.1% | MCH Mean ± SE [1]: 28.2 ± 0.7 pg | MCHC Mean ± SE [1]: 24.3 ± 0.5 g/dL | MCV Mean ± SE [1]: 72.04 ± 2.6 fL | Monocytes Mean ± SE [1]: 1.06 ± 0.02% | Neutrophils Mean ± SE [1]: 25.9 ± 0.5% | PLT Mean ± SE [1]: 563.8 ± 17.4 10^3/mm^3 | RBC Mean ± SE [1]: 7.50 ± 0.23 10^6/mm^3 | WBC Mean ± SE [1]: 8233.2 ± 83.7 Cell/mm^3 | MDA [2]: 2.33 ± 0.07***^b nmol/g | NP-SH [2]: 4.21 ± 0.18***^b nmol/g | Total Protein [2]: 92.72 ± 1.54***^b g/l | Alkaline phosphatase Mean ± SE [3]: 321.28 ± 6.91 U/L | Bilirubin Mean ± SE [3]: 0.75 ± 0.03 mg/dL | Cholesterol Mean ± SE [3]: 134.8 ± 3.6 mg/dL | GGT Mean ± SE [3]: 5.60 ± 0.17 U/L | Glucose level Mean ± SE [3]: 143.85 ± 2.47***^b mg/dl | HDL Mean ± SE [3]: 29.8 ± 0.9 mg/dL | LDH Mean ± SE [3]: 184.92 ± 5.08***^b U/L | LDL Mean ± SE [3]: 83.9 ± 3.3 mg/dL | SGOT(AST) Mean ± SE [3]: 143.28 ± 2.88 U/L | SGPT(ALT) Mean ± SE [3]: 50.48 ± 3.17 U/L | Triglycerides Mean ± SE [3]: 105.1 ± 2.2 mg/dL | VLDL Mean ± SE [3]: 21.0 ± 0.4 mg/dL
